Measurements from patent US8192717B2, “Composition for diagnosing amyloid-related diseases” (Nagasaki University, priority 2004, dated 2012).

Assay: Radioactivity distribution in mouse body after intravenous administration of radioiodine labeled forms
Conditions: mouse, intravenous administration, mean (SD) of 3 to 5 mice
Experimental: Thereafter, 100 μl (0.5 to 1 μCi) of each labeled form was intravenously administered to each group consisting of three to five 5-week-old ddY male mice (25 to 30 g). 2, 10, 30, and 60 minutes after the intravenous administration, such mice were decapitated, and blood was collected. Thereafter, organs were excised, and the weight and radioactivity thereof were then measured.

Distribution of radioactivity, Blood (2 min after administration)	Distribution of radioactivity, Blood (10 min after administration)	Distribution of radioactivity, Blood (30 min after administration)	Distribution of radioactivity, Blood (60 min after administration)	Distribution of radioactivity, Brain (2 min after administration)	Distribution of radioactivity, Brain (10 min after administration)	Distribution of radioactivity, Brain (30 min after administration)	Distribution of radioactivity, Brain (60 min after administration)	Distribution of radioactivity, Heart (2 min after administration)	Distribution of radioactivity, Heart (10 min after administration)	Distribution of radioactivity, Heart (30 min after administration)	Distribution of radioactivity, Heart (60 min after administration)	Distribution of radioactivity, Intestine (2 min after administration)	Distribution of radioactivity, Intestine (10 min after administration)	Distribution of radioactivity, Intestine (30 min after administration)	Distribution of radioactivity, Intestine (60 min after administration)	Distribution of radioactivity, Kidney (2 min after administration)	Distribution of radioactivity, Kidney (10 min after administration)	Distribution of radioactivity, Kidney (30 min after administration)	Distribution of radioactivity, Kidney (60 min after administration)	Structure (SMILES)	further results
1.89 (0.28) % ID/g	1.39 (0.10) % ID/g	1.34 (0.07) % ID/g	1.50 (0.09) % ID/g	4.12 (0.15) % ID/g	3.68 (0.18) % ID/g	1.84 (0.12) % ID/g	1.19 (0.04) % ID/g	4.87 (0.66) % ID/g	2.66 (0.12) % ID/g	1.67 (0.14) % ID/g	1.28 (0.12) % ID/g	3.10 (0.61) % ID/g	7.91 (1.05) % ID/g	12.84 (1.18) % ID/g	21.48 (3.17) % ID/g	8.13 (1.28) % ID/g	5.21 (0.44) % ID/g	3.85 (0.33) % ID/g	3.05 (0.25) % ID/g	CNc1ccc(-c2cc(=O)c3cc([125I])ccc3o2)cc1 [[125I]Compound 10]	Distribution of radioactivity, Liver (2 min after administration): 16.28 (0.90) % ID/g; Distribution of radioactivity, Liver (10 min after administration): 25.28 (0.31) % ID/g; Distribution of radioactivity, Liver (30 min after administration): 18.61 (1.81) % ID/g; Distribution of radioactivity, Liver (60 min after administration): 15.14 (0.89) % ID/g; Distribution of radioactivity, Spleen (2 min after administration): 2.57 (1.54) % ID/g; Distribution of radioactivity, Spleen (10 min after administration): 2.31 (0.01) % ID/g; Distribution of radioactivity, Spleen (30 min after administration): 1.76 (0.23) % ID/g; Distribution of radioactivity, Spleen (60 min after administration): 1.52 (0.29) % ID/g
2.34 (0.16) % ID/g	2.44 (0.19) % ID/g	2.56 (0.64) % ID/g	2.27 (0.47) % ID/g	4.88 (0.47) % ID/g	4.40 (0.44) % ID/g	2.78 (0.72) % ID/g	1.62 (0.40) % ID/g	8.40 (0.47) % ID/g	3.78 (0.35) % ID/g	2.43 (0.70) % ID/g	1.64 (0.29) % ID/g	2.84 (0.18) % ID/g	5.51 (0.55) % ID/g	11.71 (1.27) % ID/g	16.08 (2.44) % ID/g	11.94 (1.49) % ID/g	6.99 (0.91) % ID/g	4.91 (1.07) % ID/g	3.76 (0.91) % ID/g	Nc1ccc(C=Cc2cc(=O)c3cc([125I])ccc3o2)cc1 [[125I]Compound 46]	Distribution of radioactivity, Liver (2 min after administration): 13.23 (1.65) % ID/g; Distribution of radioactivity, Liver (10 min after administration): 14.49 (1.10) % ID/g; Distribution of radioactivity, Liver (30 min after administration): 10.27 (1.84) % ID/g; Distribution of radioactivity, Liver (60 min after administration): 8.16 (1.33) % ID/g; Distribution of radioactivity, Spleen (2 min after administration): 4.23 (0.62) % ID/g; Distribution of radioactivity, Spleen (10 min after administration): 3.64 (0.38) % ID/g; Distribution of radioactivity, Spleen (30 min after administration): 2.92 (0.73) % ID/g; Distribution of radioactivity, Spleen (60 min after administration): 2.16 (0.85) % ID/g
